biological target: T1, STAT6 (Homo sapiens, UniProt P42226); assay: STAT6 Reporter Luciferase Assay (IL-13 stimulated HaCaT keratinocyte NanoLuc reporter cells); assay type: cell-based; settings: IL-13 stimulated HaCaT STAT6 NanoLuc reporter cells; read-out: Reporter EC50
T1 construct: stably transfected HaCaT keratinocyte cell line, which expresses NanoLuc luciferase reporter gene under the transcriptional control of the STAT6 responsive promoter; endogenous in cells; host or cells: HaCaT keratinocyte reporter cell line (stably transfected with a NanoLuc reporter)
T1 sequence (P42226 1-847): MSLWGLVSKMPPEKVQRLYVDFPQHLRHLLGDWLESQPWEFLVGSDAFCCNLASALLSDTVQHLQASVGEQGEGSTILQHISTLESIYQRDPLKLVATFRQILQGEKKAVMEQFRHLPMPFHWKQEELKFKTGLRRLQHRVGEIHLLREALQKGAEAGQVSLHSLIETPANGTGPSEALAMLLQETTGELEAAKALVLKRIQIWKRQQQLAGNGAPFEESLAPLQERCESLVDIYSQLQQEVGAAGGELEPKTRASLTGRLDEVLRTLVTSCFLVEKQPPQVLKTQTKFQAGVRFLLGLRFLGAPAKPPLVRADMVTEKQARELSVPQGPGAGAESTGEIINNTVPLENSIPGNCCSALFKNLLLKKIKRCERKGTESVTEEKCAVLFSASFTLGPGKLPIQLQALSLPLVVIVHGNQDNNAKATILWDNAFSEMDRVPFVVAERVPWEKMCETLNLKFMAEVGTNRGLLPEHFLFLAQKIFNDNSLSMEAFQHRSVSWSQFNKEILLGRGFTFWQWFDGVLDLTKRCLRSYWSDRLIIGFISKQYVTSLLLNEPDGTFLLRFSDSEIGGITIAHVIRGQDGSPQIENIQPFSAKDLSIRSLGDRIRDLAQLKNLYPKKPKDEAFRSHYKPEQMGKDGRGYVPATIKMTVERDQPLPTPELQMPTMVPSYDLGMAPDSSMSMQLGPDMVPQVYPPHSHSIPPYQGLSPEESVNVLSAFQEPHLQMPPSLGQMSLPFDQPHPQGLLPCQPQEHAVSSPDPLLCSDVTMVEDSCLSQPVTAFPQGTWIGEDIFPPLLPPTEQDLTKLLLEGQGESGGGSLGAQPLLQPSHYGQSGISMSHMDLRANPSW
Outline: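 Stably transfected HaCaT cells carrying NanoLuc under the STAT6-responsive IL-13Ra2 promoter were pre-treated with compound (11-point, 4-fold series, duplicate) for 2 h at 37 °C, then stimulated with 0.12 nM IL-13 for 4 h. Nano-Glo luminescence was read after 15 min.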

| EC50 [µM] | Compound |
| --- | --- |
| 0.056 | CC(C)n1nc(C(=O)NCc2ccc(NC(=O)N(C)C)cc2)c2c1CCN(c1ccc(C(=O)N3CCn4nc(C#N)cc4C3)cn1)C2 [Example 386, 5-(5-(2-cyano-4,5,6,7-tetrahydropyrazolo[1,5-a]pyrazine-5-carbonyl)pyridin-2-yl)-N-(4-(3,3-dimethylureido)benzyl)-1-isopropyl-4,5,6,7-tetrahydro-1H-pyrazolo[4,3-c]pyridine-3-carboxamide] |
| 0.003 | COc1cccc2c1CN(C(=O)c1ccc(N3CCc4c(c(C(=O)NCc5ccc(NC(=O)N(C)C)cc5)nn4C(C)C)C3)nc1)C2 [Example 387, N-(4-(3,3-dimethylureido)benzyl)-1-isopropyl-5-(5-(4-methoxyisoindoline-2-carbonyl)pyridin-2-yl)-4,5,6,7-tetrahydro-1H-pyrazolo[4,3-c]pyridine-3-carboxamide] |
| 0.032 | Cc1nn(C)c2c1CN(C(=O)c1ccc(N3CCc4c(c(C(=O)NCc5ccc(NC(=O)N(C)C)cc5)nn4C(C)C)C3)nc1)C2 [Example 401, 5-(5-(1,3-dimethyl-1,4,5,6-tetrahydropyrrolo[3,4-c]pyrazole-5-carbonyl)pyridin-2-yl)-N-(4-(3,3-dimethylureido)benzyl)-1-isopropyl-4,5,6,7-tetrahydro-1H-pyrazolo[4,3-c]pyridine-3-carboxamide] |
| 0.003 | CC(C)n1nc(C(=O)NCc2ccc(NC(=O)N(C)C)cc2)c2c1CCN(c1ccc(C(=O)N3Cc4ncsc4C3)cn1)C2 [Example 402, 5-(5-(5,6-dihydro-4H-pyrrolo[3,4-d]thiazole-5-carbonyl)pyridin-2-yl)-N-(4-(3,3-dimethylureido)benzyl)-1-isopropyl-4,5,6,7-tetrahydro-1H-pyrazolo[4,3-c]pyridine-3-carboxamide] |
| 0.012 | CC(C)n1nc(C(=O)NCc2ccc(NC(=O)N(C)C)cc2)c2c1CCN(c1ccc(C(=O)N3CCc4scnc4C3)cn1)C2 [Example 403, N-(4-(3,3-dimethylureido)benzyl)-1-isopropyl-5-(5-(4,5,6,7-tetrahydrothiazolo[4,5-c]pyridine-5-carbonyl)pyridin-2-yl)-4,5,6,7-tetrahydro-1H-pyrazolo[4,3-c]pyridine-3-carboxamide] |
| 0.04 | Cc1cnc2n1CCN(C(=O)c1ccc(N3CCc4c(c(C(=O)NCc5ccc(NC(=O)N(C)C)cc5)nn4C(C)C)C3)nc1)C2 [Example 404, N-(4-(3,3-dimethylureido)benzyl)-1-isopropyl-5-(5-(3-methyl-5,6,7,8-tetrahydroimidazo[1,2-a]pyrazine-7-carbonyl)pyridin-2-yl)-4,5,6,7-tetrahydro-1H-pyrazolo[4,3-c]pyridine-3-carboxamide] |
| 0.159 | CC(C)n1nc(C(=O)NCc2ccc(NC(=O)N(C)C)cc2)c2c1CCN(c1ccc(C(=O)N3CCc4ncn(C)c4C3)cn1)C2 [Example 405, N-(4-(3,3-dimethylureido)benzyl)-1-isopropyl-5-(5-(3-methyl-4,5,6,7-tetrahydro-3H-imidazo[4,5-c]pyridine-5-carbonyl)pyridin-2-yl)-4,5,6,7-tetrahydro-1H-pyrazolo[4,3-c]pyridine-3-carboxamide] |
| 0.011 | Cc1nc2c(s1)CCN(C(=O)c1ccc(N3CCc4c(c(C(=O)NCc5ccc(NC(=O)N(C)C)cc5)nn4C(C)C)C3)nc1)C2 [Example 406, N-(4-(3,3-dimethylureido)benzyl)-1-isopropyl-5-(5-(2-methyl-4,5,6,7-tetrahydrothiazolo[4,5-c]pyridine-5-carbonyl)pyridin-2-yl)-4,5,6,7-tetrahydro-1H-pyrazolo[4,3-c]pyridine-3-carboxamide] |
| 0.039 | CC(C)n1nc(C(=O)NCc2ccc(NC(=O)N(C)C)cc2)c2c1CCN(c1ccc(C(=O)N3Cc4cncnc4C3)cn1)C2 [Example 408, 5-(5-(6,7-dihydro-5H-pyrrolo[3,4-d]pyrimidine-6-carbonyl)pyridin-2-yl)-N-(4-(3,3-dimethylureido)benzyl)-1-isopropyl-4,5,6,7-tetrahydro-1H-pyrazolo[4,3-c]pyridine-3-carboxamide] |
| 0.024 | Cc1nc2c(n1C)CCN(C(=O)c1ccc(N3CCc4c(c(C(=O)NCc5ccc(NC(=O)N(C)C)cc5)nn4C(C)C)C3)nc1)C2 [Example 409, 5-(5-(1,2-dimethyl-4,5,6,7-tetrahydro-1H-imidazo[4,5-c]pyridine-5-carbonyl)pyridin-2-yl)-N-(4-(3,3-dimethylureido)benzyl)-1-isopropyl-4,5,6,7-tetrahydro-1H-pyrazolo[4,3-c]pyridine-3-carboxamide] |
| 0.015 | Cc1cnc2c(c1)CN(C(=O)c1ccc(N3CCc4c(c(C(=O)NCc5ccc(NC(=O)N(C)C)cc5)nn4C(C)C)C3)nc1)CC2 [Example 410, N-(4-(3,3-dimethylureido)benzyl)-1-isopropyl-5-(5-(3-methyl-5,6,7,8-tetrahydro-1,6-naphthyridine-6-carbonyl)pyridin-2-yl)-4,5,6,7-tetrahydro-1H-pyrazolo[4,3-c]pyridine-3-carboxamide] |
| 0.008 | CC(C)n1nc(C(=O)NCc2ccc(NC(=O)N(C)C)cc2)c2c1CCN(c1ccc(C(=O)N3Cc4ccc(C#N)cc4C3)cn1)C2 [Example 411, 5-(5-(5-cyanoisoindoline-2-carbonyl)pyridin-2-yl)-N-(4-(3,3-dimethylureido)benzyl)-1-isopropyl-4,5,6,7-tetrahydro-1H-pyrazolo[4,3-c]pyridine-3-carboxamide] |
| 0.396 | CC(C)n1nc(C(=O)NCc2ccc(NC(=O)N(C)C)cc2)c2c1CCN(c1ccc(C(=O)N3CCc4cnc(O)cc4C3)cn1)C2 [Example 412, N-(4-(3,3-dimethylureido)benzyl)-5-(5-(7-hydroxy-1,2,3,4-tetrahydro-2,6-naphthyridine-2-carbonyl)pyridin-2-yl)-1-isopropyl-4,5,6,7-tetrahydro-1H-pyrazolo[4,3-c]pyridine-3-carboxamide] |
| 0.082 | Cc1nc2n(n1)CCN(C(=O)c1ccc(N3CCc4c(c(C(=O)NCc5ccc(NC(=O)N(C)C)cc5)nn4C(C)C)C3)nc1)C2 [Example 413, N-(4-(3,3-dimethylureido)benzyl)-1-isopropyl-5-(5-(2-methyl-5,6,7,8-tetrahydro-[1,2,4]triazolo[1,5-a]pyrazine-7-carbonyl)pyridin-2-yl)-4,5,6,7-tetrahydro-1H-pyrazolo[4,3-c]pyridine-3-carboxamide] |
| 0.066 | Cc1nc2n(c1C)CCN(C(=O)c1ccc(N3CCc4c(c(C(=O)NCc5ccc(NC(=O)N(C)C)cc5)nn4C(C)C)C3)nc1)C2 [Example 414, 5-(5-(2,3-dimethyl-5,6,7,8-tetrahydroimidazo[1,2-a]pyrazine-7-carbonyl)pyridin-2-yl)-N-(4-(3,3-dimethylureido)benzyl)-1-isopropyl-4,5,6,7-tetrahydro-1H-pyrazolo[4,3-c]pyridine-3-carboxamide] |
| 0.003 | CC(C)n1nc(C(=O)NCc2ccc(NC(=O)N(C)C)cc2)c2c1CCN(c1ccc(C(=O)N3Cc4cccc(C#N)c4C3)cn1)C2 [Example 415, 5-(5-(4-cyanoisoindoline-2-carbonyl)pyridin-2-yl)-N-(4-(3,3-dimethylureido)benzyl)-1-isopropyl-4,5,6,7-tetrahydro-1H-pyrazolo[4,3-c]pyridine-3-carboxamide] |

From patent publication US20250320213A1, “Nitrogen-Containing Heterocyclic Compounds” (Pfizer Inc., priority 2024, published 2025)
